Test results: patent publication US3941850A, “α,α,α',α'-TETRAKIS(4-HYDROXY-3,5-DISUBSTITUTED PHENYL)XYLENE” (The Quaker Oats Company, priority 1974, dated 1976)

Tests used:
[1] = Antioxidant evaluation in cis-polyisoprene (IR carbonyl band, film in oven); settings: 130°C oven, 0.100 g antioxidant, until carbonyl band exceeded 6 cm
Protocol: A number of candidate antioxidants were evaluated in cis-polyisoprene. Cis-polyisoprene was cut up into small pieces and dissolved overnight in a rapidly stirred solution of 500 ml of toluene. If the antioxidant was readily soluble in toluene, 0.100 g was then added to the cis-polyisoprenetoluene solution and stirred until it dissolved. If the antioxidant was not readily soluble in toluene it was dissolved in a small amount of an appropriate solvent and then added to the toluene solution. A sample of the solution was then taken up in a capillary dropper and 15 drops were placed on a circular sodium chloride plate, 1 inch in diameter. The plate was then put in a 130°C. oven for a few minutes to evaporate the toluene.
An infrared spectrum was run of the film on the plate. The plate was then put back in the oven. Every hour it was removed and another infrared spectrum was run. This procedure was repeated until appreciable oxidation had taken place as indicated by the appearance of a carbonyl band at 1700-1750 cm^^-1. The test was ended when the carbonyl band exceded 6 cm on a Perkin Elmer Infrared Spectophotometer, Model 710. This length is approximately equal to the length of the peak at 1450 cm^^-1.

[2] = Heat aging test of polypropylene film; settings: 140°C, 5 mil film, 0.1 % by weight tetraphenolic derivative, 0 synergist
Protocol: A number of candidate stabilizers were incorporated in 5 mil thick samples of polypropylene film, and the resulting materials evaluated by heat aging the films. In some of the tests where indicated dilaurylthiodipropionate was added as synergist.
In the heat aging test, polypropylene film samples 5 mil in thickness were maintained in an oven at 140°C. Each sample was tested for loss of structural integrity. The number of hours shown in the table are the total elapsed hours before the film cracked or embrittled when flexed. The film was embrittled when it crumbled to a powder.

[3] = Solubility in ethanol and toluene; format: physicochemical; settings: 27°C

Cc1cc(C(c2ccc(C(c3cc(C)c(O)c(C)c3)c3cc(C)c(O)c(C)c3)cc2)c2cc(C)c(O)c(C)c2)cc(C)c1O [Test 12]
Maximum Protection [1]: 8 h

Cc1cc(C(c2ccc(C(c3cc(C)c(O)cc3C)c3cc(C)c(O)cc3C)cc2)c2cc(C)c(O)cc2C)c(C)cc1O [Test 13]
Maximum Protection [1]: 3 h

Cc1cc(C(c2ccc(C(c3cc(C)c(O)c(C(C)(C)C)c3)c3cc(C)c(O)c(C(C)(C)C)c3)cc2)c2cc(C)c(O)c(C(C)(C)C)c2)cc(C(C)(C)C)c1O [Test 14]
Maximum Protection [1]: 13 h

Cc1cc(O)c(C(C)(C)C)cc1C(c1ccc(C(c2cc(C(C)(C)C)c(O)cc2C)c2cc(C(C)(C)C)c(O)cc2C)cc1)c1cc(C(C)(C)C)c(O)cc1C [Test 15]
Maximum Protection [1]: 6 h

CC(C)c1cc(C(c2ccc(C(c3cc(C(C)C)c(O)c(C(C)C)c3)c3cc(C(C)C)c(O)c(C(C)C)c3)cc2)c2cc(C(C)C)c(O)c(C(C)C)c2)cc(C(C)C)c1O [Test 16]
Maximum Protection [1]: 7 h

CCC(C)c1cc(C(c2ccc(C(c3cc(C(C)CC)c(O)c(C(C)CC)c3)c3cc(C(C)CC)c(O)c(C(C)CC)c3)cc2)c2cc(C(C)CC)c(O)c(C(C)CC)c2)cc(C(C)CC)c1O (centres unmarked) [Test 17]
Maximum Protection [1]: 7 h

CC(C)Cc1cc(C(c2ccc(C(c3cc(CC(C)C)c(O)c(CC(C)C)c3)c3cc(CC(C)C)c(O)c(CC(C)C)c3)cc2)c2cc(CC(C)C)c(O)c(CC(C)C)c2)cc(CC(C)C)c1O [Test 18]
Maximum Protection [1]: 6 h

CC(C)(C)c1cc(C(c2ccc(C(c3cc(C(C)(C)C)c(O)c(C(C)(C)C)c3)c3cc(C(C)(C)C)c(O)c(C(C)(C)C)c3)cc2)c2cc(C(C)(C)C)c(O)c(C(C)(C)C)c2)cc(C(C)(C)C)c1O [Test 19]
Maximum Protection [1]: 16 h

CCCCC(CC)Cc1cc(C(c2ccc(C(c3cc(CC(CC)CCCC)c(O)c(CC(CC)CCCC)c3)c3cc(CC(CC)CCCC)c(O)c(CC(CC)CCCC)c3)cc2)c2cc(CC(CC)CCCC)c(O)c(CC(CC)CCCC)c2)cc(CC(CC)CCCC)c1O (centres unmarked) [Test 20]
Maximum Protection [1]: 3 h

Oc1c(Cc2ccccc2)cc(C(c2ccc(C(c3cc(Cc4ccccc4)c(O)c(Cc4ccccc4)c3)c3cc(Cc4ccccc4)c(O)c(Cc4ccccc4)c3)cc2)c2cc(Cc3ccccc3)c(O)c(Cc3ccccc3)c2)cc1Cc1ccccc1 [Test 21]
Maximum Protection [1]: 7 h

Cc1ccc(Cc2cc(C(c3ccc(C(c4cc(Cc5ccc(C)cc5)c(O)c(Cc5ccc(C)cc5)c4)c4cc(Cc5ccc(C)cc5)c(O)c(Cc5ccc(C)cc5)c4)cc3)c3cc(Cc4ccc(C)cc4)c(O)c(Cc4ccc(C)cc4)c3)cc(Cc3ccc(C)cc3)c2O)cc1 [Test 22]
Maximum Protection [1]: 6 h

Cc1cc(C(c2ccc(C(c3cc(C)c(O)c(C)c3)c3cc(C)c(O)c(C)c3)cc2)c2cc(C)c(O)c(C)c2)cc(C)c1O [Test 24]
Oven Hours, Cracked [2]: 31 h
Oven Hours, Embrittled [2]: 31 h

Cc1cc(C(c2ccc(C(c3cc(C)c(O)cc3C)c3cc(C)c(O)cc3C)cc2)c2cc(C)c(O)cc2C)c(C)cc1O [Test 26]
Oven Hours, Cracked [2]: 30 h
Oven Hours, Embrittled [2]: 30 h

Cc1cc(C(c2ccc(C(c3cc(C)c(O)c(C)c3)c3cc(C)c(O)c(C)c3)cc2)c2cc(C)c(O)c(C)c2)cc(C)c1O [Test 28]
Solubility, Ethanol [3]: 3 g/100 ml
Solubility, Toluene [3]: < .17 g/100 ml

Cc1cc(C(c2ccc(C(c3cc(C)c(O)cc3C)c3cc(C)c(O)cc3C)cc2)c2cc(C)c(O)cc2C)c(C)cc1O [Test 29]
Solubility, Ethanol [3]: < .14 g/100 ml
Solubility, Toluene [3]: < .17 g/100 ml

Cc1cc(C(c2ccc(C(c3cc(C)c(O)c(C(C)(C)C)c3)c3cc(C)c(O)c(C(C)(C)C)c3)cc2)c2cc(C)c(O)c(C(C)(C)C)c2)cc(C(C)(C)C)c1O [Test 30]
Solubility, Ethanol [3]: > 9 g/100 ml
Solubility, Toluene [3]: > 9 g/100 ml

Cc1cc(O)c(C(C)(C)C)cc1C(c1ccc(C(c2cc(C(C)(C)C)c(O)cc2C)c2cc(C(C)(C)C)c(O)cc2C)cc1)c1cc(C(C)(C)C)c(O)cc1C [Test 31]
Solubility, Ethanol [3]: > 9 g/100 ml
Solubility, Toluene [3]: < .17 g/100 ml
